Assay results: patent publication US10508077B2 (FORMA Therapeutics, Inc., priority 2015, dated 2019)

What was measured:
[1] = biological target: T1, Recombinant N-terminal GST tag full-length human HDAC8 (Homo sapiens, UniProt Q9BY41); assay: HDAC8 probe binding assay, time resolved fluorescence (TRF); settings: fluorescein labeled pan-HDAC inhibitor probe, 16 hours incubation, compounds listed under IC50 range headings
T1 construct: Recombinant N-terminal GST tag full-length human HDAC8; purchased SignalChem H90-30G-1000; host or cells: Sf9 insect cells (baculovirus)
T1 sequence (Q9BY41 1-377): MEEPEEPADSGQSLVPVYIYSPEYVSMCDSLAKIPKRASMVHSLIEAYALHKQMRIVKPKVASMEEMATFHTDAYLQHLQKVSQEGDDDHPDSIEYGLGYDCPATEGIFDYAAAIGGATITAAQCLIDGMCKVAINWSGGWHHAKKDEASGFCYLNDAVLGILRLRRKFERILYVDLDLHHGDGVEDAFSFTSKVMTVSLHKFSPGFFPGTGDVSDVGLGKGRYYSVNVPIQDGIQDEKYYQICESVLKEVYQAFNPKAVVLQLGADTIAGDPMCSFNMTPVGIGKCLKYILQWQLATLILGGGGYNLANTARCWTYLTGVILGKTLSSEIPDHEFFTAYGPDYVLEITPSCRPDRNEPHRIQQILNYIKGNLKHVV
Method: The HDAC8 probe binding assay was performed using a time resolved fluorescence (TRF) assay format. Recombinant N-terminal GST tag full-length human HDAC8 was expressed and purified from baculovirus in Sf9 insect cells (SignalChem, #H90-30G-1000), Each assay was performed in 1536 black well microplates (Corning, #3936) in a final volume of 4 μL in assay buffer containing 50 mM HEPES (pH 7.5), 50 mM KCl, 50 mM NaCl, 0.5 mM GSH (L-Glutathione reduced, Sigma #G4251), 0.03% BGG (0.22 μM filtered, Sigma, #G7516-25G), and 0.01% Triton X-100 (Sigma, #T9284-10L). 20 nL of 10-point, 3-fold serial dilution in DMSO was pre-dispensed into respective wells of 1536 assay plates for a final test concentration range of 25 μM to 1.3 nM respectively. The final concentration in the assay of HDAC8 and probe (a fluorescein labeled pan-HDAC inhibitor) was 2.5 nM and 1.5 nM respectively. 2 μL of 2× probe and 2× anti-GST Terbium (Cisbio, #61GSTXLB) was added to assay plates followed by 2 μL of 2× HDAC8. Plates were incubated for 16 hours at room temperature before time resolved fluorescence was read on the Envision (Excitation at 340 nm, and Emission at 485 nm and 535 nm, Perkin Elmer).
Data from HDAC8 Assays were reported as percent inhibition (inh) compared with control wells based on the following equation: % inh=1−((FLU−AveLow)/(AveHigh−AveLow)) where FLU=measured time resolved fluorescence. AveLow=average time resolved fluorescence of no enzyme control (n=32). AveHigh=average time resolved fluorescence of DMSO control (n=32). IC50 values were determined by curve fitting of the standard 4 parameter logistic fitting algorithm included in the Activity Base software package: IDBS XE Designer Model205. Data is fitted using the Levenburg Marquardt algorithm.

[2] = biological target: T2, Full length human recombinant HDAC8 protein (Homo sapiens, UniProt Q9BY41); assay: In vitro histone deacetylase assay: enzymatic HDAC8 assay, electrophoretic mobility shift; format: biochemical; settings: substrate RHKK(Ac)-NH2, 1 nM enzyme, compounds listed under IC50 range headings
T2 construct: Full length human recombinant HDAC8 protein was expressed in baculoviral system; made in house
T2 sequence (Q9BY41 1-377): T1 sequence (Q9BY41 1-377)
How it was run: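 Baculovirus-expressed full-length human HDAC8 (1 nM) deacetylated 2 µM fluorescent RHKK(Ac)-NH2 peptide in pH 7.5 HEPES, 1% DMSO, at 25 °C, with 12 compound concentrations at 3× spacing. SDS-quenched; product and substrate resolved by microfluidic electrophoresis, P/(S+P) converted to percent inhibition, and IC50 obtained by 4-parameter fit.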

Row | SMILES | IC50 [1] | IC50 [2]
1 | O=C(/C=C/c1ccccc1NCc1ccc(-c2nnn[nH]2)cc1)NO [Example I-96, (E)-3-(2-((4-(1H-tetrazol-5-yl)benzyl)amino)phenyl)-N-hydroxyacrylamide] | ≤ 1000 nM | < 1000 nM
2 | O=C(/C=C/c1ccccc1NCc1cccc(N2CCOCC2)c1)NO [Example I-97, (E)-N-hydroxy-3-(2-((3-morpholinobenzyl)amino)phenyl) acrylamide] | ≤ 1000 nM | < 1000 nM
3 | O=C(/C=C/c1ccccc1NCc1ccnc(N2CCOCC2)c1)NO [Example I-98, (E)-N-hydroxy-3-(2-(((2-morpholinopyridin-4-yl)methyl)amino)phenyl)acrylamide] | ≤ 1000 nM | < 1000 nM
4 | CS(=O)(=O)c1cccc(CNc2ccccc2/C=C/C(=O)NO)c1 [Example I-100, (E)-N-hydroxy-3-(2-((3-(methylsulfonyl)benzyl)amino)phenyl)acrylamide] | ≤ 1000 nM | < 1000 nM
5 | O=C(/C=C/c1ccccc1NCc1cccc(CN2CCOCC2)c1)NO [Example I-101, (E)-N-hydroxy-3-(2-((3-(morpholinomethyl)benzyl)amino)phenyl)acrylamide] | ≤ 1000 nM | < 1000 nM
6 | O=C(/C=C/c1ccccc1NCc1ccc2nccn2c1)NO [Example I-103, (E)-N-hydroxy-3-(2-((imidazo[1,2-a]pyridin-6-ylmethyl)amino)phenyl)acrylamide] | ≤ 1000 nM | < 1000 nM
7 | O=C(/C=C/c1ccccc1NCc1c[nH]nc1-c1ccc(C(F)(F)F)cc1)NO [Example I-104] | ≤ 1000 nM | < 1000 nM
8 | NC(=O)CCc1cccc(C(=O)Nc2ccccc2/C=C/C(=O)NO)c1 [Example I-107, (E)-3-(3-amino-3-oxopropyl)-N-(2-(3-(hydroxyamino)-3-oxoprop-1-en-1-yl)phenyl)benzamide] | ≤ 1000 nM | < 1000 nM
9 | O=C(/C=C/c1ccccc1N1CCC2(CCNC2)C1)NO (stereo not drawn) [Example I-113, (E)-3-(2-(2,7-diazaspiro[4.4]nonan-2-yl)phenyl)-N-hydroxyacrylamide 2,2,2-trifluoroacetate] | ≤ 1000 nM | < 1000 nM
10 | O=C(/C=C/c1ccccc1N1CCC2(CCNCC2)C1)NO [Example I-115, (E)-3-(2-(2,8-diazaspiro[4.5]decan-2-yl)phenyl)-N-hydroxyacrylamide 2,2,2-trifluoroacetate] | ≤ 1000 nM | < 1000 nM
11 | O=C(/C=C/c1ccncc1NC(=O)c1cccc(C(F)(F)F)c1)NO [Example I-123, (E)-N-(4-(3-(hydroxyamino)-3-oxoprop-1-enyl)pyridin-3-yl)-3-(trifluoromethyl)benzamide] | ≤ 1000 nM | < 1000 nM
12 | Cc1cc(C(=O)NC2CCN(c3ccccc3/C=C/C(=O)NO)CC2)n[nH]1 [Example I-134, (E)-N-(1-(2-(3-(hydroxyamino)-3-oxoprop-1-en-1-yl)phenyl)piperidin-4-yl)-5-methyl-1H-pyrazole-3-carboxamide] | ≤ 1000 nM | < 1000 nM
13 | O=C(/C=C/c1ccccc1N1CCC(NC(=O)c2ccnn2C(F)F)CC1)NO [Example I-148] | ≤ 1000 nM | < 1000 nM
14 | O=C(/C=C/c1ccccc1N1CCC(NC(=O)c2ccc3[nH]ccc3c2)CC1)NO [Example I-153, (E)-N-(1-(2-(3-(hydroxyamino)-3-oxoprop-1-en-1-yl)phenyl)piperidin-4-yl)-1H-indole-5-carboxamide] | ≤ 1000 nM | < 1000 nM
15 | O=C(/C=C/c1ccccc1N1CCN(Cc2nccs2)CC1)NO [Example I-170, (E)-N-hydroxy-3-(2-(4-(thiazol-2-ylmethyl)piperazin-1-yl)phenyl)acrylamide] | ≤ 1000 nM | < 1000 nM
16 | O=C(/C=C/c1ccccc1N1CCN(Cc2cccnc2)CC1)NO [Example I-179, (E)-N-hydroxy-3-(2-(4-(pyridin-3-ylmethyl)piperazin-1-yl)phenyl)acrylamide] | ≤ 1000 nM | < 1000 nM
17 | Cn1cncc1CN1CCN(c2ccccc2/C=C/C(=O)NO)CC1 [Example I-180, (E)-N-hydroxy-3-(2-(4-((1-methyl-1H-imidazol-5-yl)methyl)piperazin-1-yl)phenyl)acrylamide] | ≤ 1000 nM | < 1000 nM
18 | O=C(/C=C/c1ccccc1N1CCN(Cc2ccc(N3CCCC3)nc2)CC1)NO [Example I-182, (E)-N-hydroxy-3-(2-(4-((6-(pyrrolidin-1-yl)pyridin-3-yl)methyl)piperazin-1-yl)phenyl)acrylamide] | ≤ 1000 nM | < 1000 nM
19 | Cc1cc(CN2CCN(c3ccccc3/C=C/C(=O)NO)CC2)n(C)n1 [Example I-183, (E)-3-(2-(4-((1,3-dimethyl-1H-pyrazol-5-yl)methyl)piperazin-1-yl)phenyl)-N-hydroxyacrylamide] | ≤ 1000 nM | < 1000 nM
20 | Cc1ncsc1C(=O)N1CCN(c2ccccc2/C=C/C(=O)NO)CC1 [Example I-200, (E)-N-hydroxy-3-(2-(4-(4-methylthiazole-5-carbonyl)piperazin-1-yl)phenyl)acrylamide] | ≤ 1000 nM | < 1000 nM
21 | O=C(/C=C/c1ccccc1N1CCN(C(=O)c2cnn3c2OCCC3)CC1)NO [Example I-204, (E)-3-(2-(4-(6,7-dihydro-5H-pyrazolo[5,1-b][1,3]oxazine-3-carbonyl)piperazin-1-yl)phenyl)-N-hydroxyacrylamide] | ≤ 1000 nM | < 1000 nM
22 | O=C(/C=C/c1ccccc1N1CCN(C(=O)c2cn[nH]c2)CC1)NO [Example I-206] | ≤ 1000 nM | < 1000 nM
23 | O=C(/C=C/c1ccccc1N1CCN(C(=O)c2ccc3[nH]ccc3c2)CC1)NO [Example I-208, (E)-3-(2-(4-(1H-indole-5-carbonyl)piperazin-1-yl)phenyl)-N-hydroxyacrylamide] | ≤ 1000 nM | < 1000 nM
24 | Cn1ccc(S(=O)(=O)NC2CCN(c3ccccc3/C=C/C(=O)NO)CC2)n1 [Example I-219, (E)-N-hydroxy-3-(2-(4-((1-methyl-1H-pyrazole)-3-sulfonamido)piperidin-1-yl)phenyl)acrylamide] | ≤ 1000 nM | < 1000 nM
25 | Cn1ccnc1S(=O)(=O)N1CCN(c2ccccc2/C=C/C(=O)NO)CC1 [Example I-252, (E)-N-hydroxy-3-(2-(4-((1-methyl-1H-imidazol-2-yl)sulfonyl)piperazin-1-yl)phenyl)acrylamide] | ≤ 1000 nM | < 1000 nM
26 | O=C(/C=C/c1ccccc1N1CCC(c2ccccc2)C1=O)NO (stereo not drawn) [Example I-262, (E)-N-hydroxy-3-(2-(2-oxo-3-phenylpyrrolidin-1-yl)phenyl)acrylamide] | ≤ 1000 nM | < 1000 nM
27 | CC(C)(C)OC(=O)N1CCN(c2ccccc2/C=C/C(=O)NO)C(=O)C1 [Example I-263, tert-butyl (E)-4-(2-(3-(hydroxyamino)-3-oxoprop-1-en-1-yl)phenyl)-3-oxopiperazine-1-carboxylate] | ≤ 1000 nM | < 1000 nM
28 | Cc1oc(C(C)(C)C)cc1C(=O)Nc1ccccc1/C=C/C(=O)NO [Example I-265, (E)-5-(tert-butyl)-N-(2-(3-(hydroxyamino)-3-oxoprop-1-en-1-yl)phenyl)-2-methylfuran-3-carboxamide] | ≤ 1000 nM | < 1000 nM
29 | O=C(/C=C/c1ccccc1NC(=O)c1cnn(-c2ccc(Cl)cc2)c1C(F)(F)F)NO [Example I-266, (E)-1-(4-chlorophenyl)-N-(2-(3-(hydroxyamino)-3-oxoprop-1-en-1-yl)phenyl)-5-(trifluoromethyl)-1H-pyrazole-4-carboxamide] | ≤ 1000 nM | < 1000 nM
30 | O=C(/C=C/c1ccccc1NC(=O)c1ccccc1Oc1ccc(Cl)cc1)NO [Example I-268, (E)-2-(4-chlorophenoxy)-N-(2-(3-(hydroxyamino)-3-oxoprop-1-en-1-yl)phenyl)benzamide] | ≤ 1000 nM | < 1000 nM
